Measurements taken from ChEMBL document CHEMBL1201862, “PubChem BioAssay data set” (2004).
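Following 48 hours of exposure in 96-well plates, responses at five concentrations were used to interpolate endpoints linearly. GI50 is the concentration that inhibits growth by half.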 Activity calls are given as the source filed them. Rule as the data show it: active = GI50 up to about 1.1 µM and inactive = higher.

Columns and labels:
Experiment in all cases: NCI anticancer screen, dose series, 48 h
SK-MEL-5 = test system: SK-MEL-5
HCT-116 = test system: HCT-116
SF-268 = test system: SF-268
IGROV-1 = test system: IGROV-1
OVCAR-3 = test system: OVCAR-3
EKVX = test system: EKVX
OVCAR-4 = test system: OVCAR-4
SK-MEL-2 = test system: SK-MEL-2
OVCAR-8 = test system: OVCAR-8
CCRF-CEM = test system: CCRF-CEM
HT-29 = test system: HT-29
K562 = test system: K562
SNB-75 = test system: SNB-75
UO-31 = test system: UO-31
SW-620 = test system: SW-620
M14 = test system: M14
DU-145 = test system: DU-145
PC-3 = test system: PC-3
MDA-MB-435 = test system: MDA-MB-435
T47D = test system: T47D

Compound | GI50 (SK-MEL-5) | GI50 (HCT-116) | GI50 (SF-268) | GI50 (IGROV-1) | GI50 (OVCAR-3) | GI50 (EKVX) | GI50 (OVCAR-4) | GI50 (SK-MEL-2) | GI50 (OVCAR-8) | GI50 (CCRF-CEM) | GI50 (HT-29) | GI50 (K562) | GI50 (SNB-75) | GI50 (UO-31) | GI50 (SW-620) | GI50 (M14) | GI50 (DU-145) | GI50 (PC-3) | GI50 (MDA-MB-435) | GI50 (T47D)
Oc1ccc2c(c1)OCC1(O)Cc3cc(O)c(O)cc3C21 (stereo not given) | 17.7 µM (inactive) | 21 µM (inactive) | 27.1 µM (inactive) | 39.6 µM (inactive) | 16.2 µM (inactive) | 27 µM (inactive) | 19.1 µM (inactive) | 27.1 µM (inactive) | 21.9 µM (inactive) | 29.7 µM (inactive) | 21.3 µM (inactive) | 27.7 µM (inactive) | 24.3 µM (inactive) | 60.1 µM (inactive) | 18.6 µM (inactive) | 19.2 µM (inactive) |  |  |  | 
O=C(O)CSCC(=O)O | > 100 µM (inactive) | > 100 µM (inactive) | > 100 µM (inactive) | > 100 µM (inactive) | > 100 µM (inactive) | > 100 µM (inactive) | > 100 µM (inactive) | > 100 µM (inactive) | > 100 µM (inactive) | > 100 µM (inactive) | > 100 µM (inactive) | > 100 µM (inactive) | > 100 µM (inactive) | > 100 µM (inactive) | > 100 µM (inactive) | > 100 µM (inactive) | > 100 µM (inactive) | > 100 µM (inactive) | > 100 µM (inactive) | 
CCCCCCN1CCc2c(C)c(C#N)c3nc4ccccc4n3c21 | 11.4 µM (inactive) | 16.5 µM (inactive) | > 100 µM (inactive) | > 100 µM (inactive) | 11.6 µM (inactive) |  | 25.9 µM (inactive) | 22.2 µM (inactive) | 29.2 µM (inactive) |  | 18.5 µM (inactive) | > 100 µM (inactive) | 32.4 µM (inactive) | > 100 µM (inactive) | 23.2 µM (inactive) | 63.5 µM (inactive) | > 100 µM (inactive) | 7.82 µM (inactive) | 17 µM (inactive) | 
CCCC(=O)Oc1ccc(/C=N/NC(N)=S)nc1 | > 100 µM (inactive) | > 100 µM (inactive) | 60 µM (inactive) | > 100 µM (inactive) | > 100 µM (inactive) | > 100 µM (inactive) | > 100 µM (inactive) | > 100 µM (inactive) | 41.8 µM (inactive) | 25.5 µM (inactive) | > 100 µM (inactive) | > 100 µM (inactive) | > 100 µM (inactive) | 60.1 µM (inactive) | > 100 µM (inactive) | 98.6 µM (inactive) |  |  |  | 
COc1cc(C2c3cc4c(cc3C3OC[C@@H]2C3CO)OCO4)cc(OC)c1OC (stereo not given in full) | 11.5 µM (inactive) |  | 31.3 µM (inactive) | 43.1 µM (inactive) |  | 41.2 µM (inactive) | 71.1 µM (inactive) | 40.2 µM (inactive) | 40.7 µM (inactive) | 23.4 µM (inactive) | 28.4 µM (inactive) | 24.9 µM (inactive) | 25.6 µM (inactive) | 45.4 µM (inactive) | 34 µM (inactive) | 31.3 µM (inactive) |  | 49.3 µM (inactive) | 6.81 µM (inactive) | > 100 µM (inactive)
CCOC(=O)C#Cc1ccc(C#CC(=O)OCC)cc1 | 2.89 µM (inactive) | 1.7 µM (inactive) | 3.88 µM (inactive) | 1.72 µM (inactive) | 2.77 µM (inactive) | 7.74 µM (inactive) | 2.83 µM (inactive) | 0.421 µM (active) | 3.49 µM (inactive) | 1.66 µM (inactive) | 1.99 µM (inactive) | 2 µM (inactive) | 0.0381 µM (active) | 3.43 µM (inactive) | 3.15 µM (inactive) | 2.12 µM (inactive) |  | 6.85 µM (inactive) | 0.818 µM (active) | > 21.2 µM (inactive)
CN(c1ccccc1Cl)S(=O)(=O)c1ccccc1 | 34.9 µM (inactive) | 82.4 µM (inactive) | > 100 µM (inactive) | > 100 µM (inactive) | > 100 µM (inactive) | 50.4 µM (inactive) | > 100 µM (inactive) | > 100 µM (inactive) | > 100 µM (inactive) | > 100 µM (inactive) | > 100 µM (inactive) | 51.8 µM (inactive) | > 100 µM (inactive) | 52.4 µM (inactive) | > 100 µM (inactive) | > 100 µM (inactive) | > 100 µM (inactive) | 44.3 µM (inactive) | 76.6 µM (inactive) | 
CC(=O)Nc1ccc2c(C(=O)O)c(C)c(O)nc2n1 | > 100 µM (inactive) | 71.3 µM (inactive) | 57.7 µM (inactive) | > 100 µM (inactive) |  | > 100 µM (inactive) |  | > 100 µM (inactive) | 83.4 µM (inactive) | > 10 µM (inactive) | > 100 µM (inactive) | 59.8 µM (inactive) |  | > 100 µM (inactive) | > 100 µM (inactive) | > 100 µM (inactive) | > 100 µM (inactive) | > 100 µM (inactive) | > 100 µM (inactive) | 89.7 µM (inactive)
